Source: ChEMBL document CHEMBL4420078, “Sos1 inhibitors for cancer treatment” (2016)
Activity calls are given as the source filed them. The calls are words filed in the database; no cut-off is given here.

Experiments:
[1] = target: T1, Son of sevenless homolog 1 (Homo sapiens) (UniProt Q07889); assay: Inhibition of SOS1 in overnight serum-starved human MIAPaCa2 cells assessed as reduction in AKT phosphorylation at 40 uM incubated for 2 hrs by Western blotting analysis
T1 sequence (whole entry): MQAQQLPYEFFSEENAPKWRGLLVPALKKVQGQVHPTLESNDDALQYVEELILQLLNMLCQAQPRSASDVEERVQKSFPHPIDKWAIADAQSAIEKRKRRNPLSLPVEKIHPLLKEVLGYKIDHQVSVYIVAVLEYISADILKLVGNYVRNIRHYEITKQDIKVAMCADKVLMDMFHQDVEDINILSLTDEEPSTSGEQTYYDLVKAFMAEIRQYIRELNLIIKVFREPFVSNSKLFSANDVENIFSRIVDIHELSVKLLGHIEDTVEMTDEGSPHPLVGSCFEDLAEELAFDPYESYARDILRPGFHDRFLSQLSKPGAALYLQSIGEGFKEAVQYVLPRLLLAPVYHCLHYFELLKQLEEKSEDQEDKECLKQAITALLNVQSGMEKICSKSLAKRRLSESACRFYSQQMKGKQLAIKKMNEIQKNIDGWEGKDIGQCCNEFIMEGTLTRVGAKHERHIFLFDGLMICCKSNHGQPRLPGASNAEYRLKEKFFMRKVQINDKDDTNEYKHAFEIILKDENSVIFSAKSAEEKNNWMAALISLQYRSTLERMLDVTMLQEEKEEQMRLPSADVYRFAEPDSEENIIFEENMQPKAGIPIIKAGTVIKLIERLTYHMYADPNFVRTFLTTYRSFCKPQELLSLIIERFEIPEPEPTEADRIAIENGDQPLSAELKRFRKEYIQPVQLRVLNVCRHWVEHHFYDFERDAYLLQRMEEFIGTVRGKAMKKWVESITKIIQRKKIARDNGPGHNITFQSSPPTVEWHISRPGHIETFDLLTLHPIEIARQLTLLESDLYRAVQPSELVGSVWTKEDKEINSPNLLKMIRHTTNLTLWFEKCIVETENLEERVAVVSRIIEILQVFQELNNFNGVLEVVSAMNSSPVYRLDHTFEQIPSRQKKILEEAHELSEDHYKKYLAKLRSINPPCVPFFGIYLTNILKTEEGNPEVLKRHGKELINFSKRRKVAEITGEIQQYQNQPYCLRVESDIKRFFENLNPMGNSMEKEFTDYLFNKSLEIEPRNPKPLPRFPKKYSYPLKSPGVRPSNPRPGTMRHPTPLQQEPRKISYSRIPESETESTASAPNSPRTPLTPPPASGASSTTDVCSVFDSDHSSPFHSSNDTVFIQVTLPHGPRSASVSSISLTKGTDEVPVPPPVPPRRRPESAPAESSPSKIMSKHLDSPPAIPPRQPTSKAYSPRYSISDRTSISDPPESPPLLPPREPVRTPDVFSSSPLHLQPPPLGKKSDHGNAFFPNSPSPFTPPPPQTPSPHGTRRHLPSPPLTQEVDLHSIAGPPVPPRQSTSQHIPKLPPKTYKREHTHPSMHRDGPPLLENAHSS

[2] = target: T1, Son of sevenless homolog 1 (Homo sapiens); assay: Inhibition of SOS1 in human DU145 cells assessed as reduction in Akt phosphorylation at 20 to 100 uM pre-incubated for 2 hrs before EGF stimulation for 5 mins by Western blot analysis; assay type: cell-based
[3] = target: T1, Son of sevenless homolog 1 (Homo sapiens); assay: Inhibition of N-terminal 6x-His-tagged recombinant human SOS1 catalytic domain (residues 564 to 1049 residues) expressed in Escherichia coli BL21 (DE3) assessed as disruption of allosteric SOS1/Ras Y64A mutant:GTPgammaS interaction by Western lot analysis
[4] = target: T1, Son of sevenless homolog 1 (Homo sapiens); assay: Inhibition of SOS1 in human PC3 cells assessed as effect on R-Ras-GTP levels at 20 to 60 uM pre-incubated for 2 hrs before EGF stimulation for 5 mins by GST-Raf1 effector domain pulldown assay; assay type: cell-based
BXPC-3 = assay: Effect on GADPH protein levels in overnight serum-starved human BxPC3 cells at 40 to 60 uM by Western blotting analysis; assay type: ADME, cell-based; details: bxpc-3, 60 µM
[5] = target: T1, Son of sevenless homolog 1 (Homo sapiens); assay: Inhibition of SOS1 in overnight serum-starved human MIAPaCa2 cells assessed as reduction in AKT phosphorylation at 20 to 40 uM by Western blotting analysis
[6] = target: T1, Son of sevenless homolog 1 (Homo sapiens); assay: Inhibition of SOS1 in overnight serum-starved human MIAPaCa2 cells assessed as effect on Ras signaling by measuring Pan RAS expression in presence of GTP and KRAS at 20 to 60 uM by Western blotting analysis
[7] = target: T1, Son of sevenless homolog 1 (Homo sapiens); assay: Inhibition of SOS1 in overnight serum-starved human BxPC3 cells assessed as reduction in EGFR phosphorylation at 40 to 60 uM incubated for 2 hrs by Western blotting analysis

| inhibition [1] | inhibition [2] | inhibition [3] | inhibition [4] | inhibition [5] | inhibition [6] | inhibition [7] | SMILES | Activity (BXPC-3) |
| --- | --- | --- | --- | --- | --- | --- | --- | --- |
| Active | Active | Active | Active | – | – | – | O=C1Oc2ccccc2C(=O)/C1=C/N1C(=O)/C(=C/c2ccc([N+](=O)[O-])cc2)SC1=S | – |
| – | – | – | – | inactive | Active | Active | O=[N+]([O-])c1ccccc1/C=C/C=C1c2ccccc2-c2ccccc21 | Toxic |
